Experimental findings from patent US4652560A, “A-deoxy-a-aza derivatives of clavulanic acid, a process for their preparation and their use” (Beecham Group p.l.c., priority 1979, dated 1987) are described below.

As usually defined, the MIC is the smallest concentration in the dilution series that meets the test's criterion for growth inhibition.

This test has as its system E coli JT39. Put plainly: Antibacterial Activity, standard MIC test. The test is classed as cell-based. Particulars: Escherichia coli, compound alone. The source says: Using conventional methods the following results were obtained in a standard MIC test: […]

With `O=C(O)CCCCCCCCCCNC/C=C1\O[C@@H]2CC(=O)N2[C@H]1C(=O)O` [11 (b), 9-N-(10'-Carboxydecyl)aminodeoxyclavulanic acid], the minimal inhibitory concentration (MIC) is > 500 µg/mL.
